The test system of the first experiment is SARS-CoV-2 strain USA-WA1/2020. Kind of experiment: microbe, parasite or virus in culture. The experiment is classed as cell-based. The settings on record: Severe acute respiratory syndrome coronavirus 2, HeLa-ACE2, 24 h, HeLa-ACE2 cells, SARS-CoV-2 infection, 24 h; bound printed in cell; read-out: EC50, uM (Hela).
By EC50 is commonly meant the concentration that produces a half-maximal response. On to `CC[C@](C)(O)C(=O)N1C[C@H]2[C@@H]([C@H]1C(=O)N[C@@H](C[C@@H]1CCNC1=O)C(=O)COC(F)(F)F)C2(C)C` [Compound 367, (1R,2S,5S)-3-((S)-2-hydroxy-2-methylbutanoyl)-6,6-dimethyl-N-((S)-3-oxo-1-((S)-2-oxopyrrolidin-3-yl)-4-(trifluoromethoxy)butan-2-yl)-3-azabicyclo[3.1.0]-hexane-2-carboxamide], for which the half-maximal effective concentration (EC50) is more than 1 µM. For the compound `CC(C)C[C@H](NC(=O)C(N)=O)C(=O)N[C@@H](C[C@@H]1CCNC1=O)C(=O)COC(F)(F)F` [Compound 239, N1-((S)-4-methyl-1-oxo-1-(((S)-3-oxo-1-((S)-2-oxopyrrolidin-3-yl)-4-(trifluoromethoxy)butan-2-yl)amino)pentan-2-yl)oxalamide], the half-maximal effective concentration (EC50) is more than 1 µM.

Staying with this experiment, now noted: Severe acute respiratory syndrome coronavirus 2, HeLa-ACE2, 24 h, HeLa-ACE2 cells, SARS-CoV-2 infection, 24 h; class symbols; read-out: EC50, uM (Hela).
As to `CC(C)C[C@H](NC(=O)c1cn2ncccc2n1)C(=O)N[C@@H](C[C@@H]1CCNC1=O)C(=O)COC(F)(F)F` [Compound 203, N-((S)-4-methyl-1-oxo-1-(((S)-3-oxo-1-((S)-2-oxopyrrolidin-3-yl)-4-(trifluoromethoxy)butan-2-yl)amino)pentan-2-yl)imidazo[1,2-b]pyridazine-2-carboxamide], the EC50 was 0.05 to 0.2 µM. For the compound `CC[C@@H](O)C(=O)NC(CC1(C)CC1)C(=O)N[C@@H](C[C@@H]1CCNC1=O)C(=O)COC(F)(F)F` (stereo partly drawn) [Compound 372, (2R)-2-hydroxy-N-(3-(1-methylcyclopropyl)-1-oxo-1-(((S)-3-oxo-l-((S)-2-oxopyrrolidin-3-yl)-4-(trifluoromethoxy)butan-2-yl)amino)propan-2-yl)butanamide], the EC50 lay in the range of 0.2 to 0.5 µM. For the compound `CC1(NC(=O)C(=O)N[C@@H](CC2CC2)C(=O)N[C@@H](C[C@@H]2CCNC2=O)C(=O)COC(F)(F)F)CC(F)(F)C1` [Compound 220, N1-((S)-3-cyclopropyl-1-oxo-1-(((S)-3-oxo-1-((S)-2-oxopyrrolidin-3-yl)-4-(trifluoromethoxy)butan-2-yl)amino)propan-2-yl)-N2-(3,3-difluoro-1-methylcyclobutyl)-oxalamide], the EC50 was less than 0.05 µM. Turning to `O=C1NCC[C@H]1C[C@H](NC(=O)[C@@H]1CC2(CC2)CN1C(=O)[C@H](O)CC1CC1)C(=O)COC(F)(F)F` [Compound 392, (S)-5-((R)-3-cyclopropyl-2-hydroxypropanoyl)-N-((S)-3-oxo-1-((S)-2-oxopyrrolidin-3-yl)-4-(trifluoromethoxy)butan-2-yl)-5-azaspiro[2.4]heptane-6-carboxamide], the half-maximal effective concentration (EC50) fell in the range of 0.05 to 0.2 µM.

With `O=C(NC1CC(F)(F)C1)C(=O)N[C@@H](Cc1ccccc1)C(=O)N[C@@H](C[C@@H]1CCNC1=O)C(=O)COC(F)(F)F` [Compound 182, N1-(3,3-difluorocyclobutyl)-N2-((S)-1-oxo-1-(((S)-3-oxo-1-((S)-2-oxopyrrolidin-3-yl)-4-(trifluoromethoxy)butan-2-yl)amino)-3-phenylpropan-2-yl)oxalamide], the half-maximal effective concentration (EC50) was less than 0.05 µM. As for `O=C(Nc1ccccc1F)C(=O)N[C@@H](CC1CCCC1(F)F)C(=O)N[C@@H](C[C@@H]1CCNC1=O)C(=O)COC(F)(F)F` (stereo partly drawn) [Compound 227, N1-((2S)-3-(2,2-difluoro-cyclopentyl)-1-oxo-1-(((S)-3-oxo-1-((S)-2-oxopyrrolidin-3-yl)-4-(trifluoromethoxy)butan-2-yl)amino)propan-2-yl)-N2-(2-fluorophenyl)-oxalamide], the EC50 was less than 0.05 µM.

Regarding `CC(C)C[C@H](NC(=O)C(=O)Nc1ccccc1F)C(=O)N[C@@H](CCC(=O)N(C)C)C(=O)COc1c(F)c(F)cc(F)c1F` [Compound 123, N1-((S)-1-(((S)-6-(dimethylamino)-2,6-dioxo-1-(2,3,5,6-tetrafluorophenoxy)-hexan-3-yl)amino)-4-methyl-1-oxopentan-2-yl)-N2-(2-fluorophenyl)oxalamide], the EC50 fell in the range of 0.05 to 0.2 µM. As to `CC(C)C[C@H](NC(=O)c1c[nH]c2ncccc12)C(=O)N[C@@H](C[C@@H]1CCNC1=O)C(=O)COC(F)(F)F` [Compound 249, N-((S)-4-methyl-1-oxo-1-(((S)-3-oxo-1-((S)-2-oxopyrrolidin-3-yl)-4-(trifluoromethoxy)butan-2-yl)amino)pentan-2-yl)-1H-pyrrolo[2,3-b]pyridine-3-carboxamide], the EC50 was 0.2 to 0.5 µM. Same read-out and setting: with `COc1ccccc1[C@@H](O)C(=O)N1C[C@H]2[C@@H]([C@H]1C(=O)N[C@@H](C[C@@H]1CCNC1=O)C(=O)COC(F)(F)F)C2(C)C` [Compound 382, (1R,2S,5S)-3-((R)-2-hydroxy-2-(2-methoxyphenyl)acetyl)-6,6-dimethyl-N-((S)-3-oxo-1-((S)-2-oxopyrrolidin-3-yl)-4-(trifluoromethoxy)butan-2-yl)-3-azabicyclo-[3.1.0]hexane-2-carboxamide] the figure was less than 0.05 µM. The same measure, in the same setting: with `COc1ccc(F)cc1NC(=O)C(=O)N[C@@H](CC(C)C)C(=O)N[C@@H](C[C@@H]1CCNC1=O)C(=O)COc1c(F)c(F)cc(F)c1F` [Compound 79, N1-(5-fluoro-2-methoxyphenyl)-N2-((S)-4-methyl-1-oxo-1-(((S)-3-oxo-1-((S)-2-oxopyrrolidin-3-yl)-4-(2,3,5,6-tetrafluorophenoxy)butan-2-yl)amino)pentan-2-yl)oxalamide] the figure was 0.05 to 0.2 µM. Take `COc1cccc(NC(=O)C(=O)N[C@@H](CC(C)C)C(=O)N[C@@H](C[C@@H]2CCNC2=O)C(=O)COc2c(F)c(F)cc(F)c2F)c1` [Compound 120, N1-(3-methoxyphenyl)-N2-((S)-4-methyl-1-oxo-1-(((S)-3-oxo-1-((S)-2-oxopyrrolidin-3-yl)-4-(2,3,5,6-tetrafluorophenoxy)butan-2-yl)amino)pentan-2-yl)oxalamide]: the EC50 is less than 0.05 µM.

Regarding `CC1(C)[C@@H]2[C@@H](C(=O)N[C@@H](C[C@@H]3CCNC3=O)C(=O)COC(F)(F)F)N(C(=O)C34CC(C(F)F)(CO3)C4)C[C@@H]21` [Compound 322, (1R,2S,5S)-3-(4-(difluoromethyl)-2-oxabicyclo[2.1.1]-hexane-1-carbonyl)-6,6-dimethyl-N-((S)-3-oxo-1-((S)-2-oxopyrrolidin-3-yl)-4-(trifluoromethoxy)butan-2-yl)-3-azabicyclo-[3.1.0]hexane-2-carboxamide], the 50% effective concentration (EC50) was in the range of 0.05 to 0.2 µM. Consider `Cc1c(F)cccc1NC(=O)C(=O)N[C@@H](CC(C)C)C(=O)N[C@@H](C[C@@H]1CCNC1=O)C(=O)COc1c(F)c(F)cc(F)c1F` [Compound 89, N1-(3-fluoro-2-methylphenyl)-N2-((S)-4-methyl-1-oxo-1-(((S)-3-oxo-1-((S)-2-oxopyrrolidin-3-yl)-4-(2,3,5,6-tetrafluorophenoxy)butan-2-yl)amino)pentan-2-yl)oxalamide], for which the EC50 was less than 0.05 µM. As for `O=C(Nc1ccccc1F)C(=O)N[C@@H](Cc1cccc(F)c1)C(=O)N[C@@H](C[C@@H]1CCNC1=O)C(=O)COC(F)(F)F` [Compound 243, N1-(2-fluorophenyl)-N2-((S)-3-(3-fluorophenyl)-1-oxo-1-(((S)-3-oxo-1-((S)-2-oxopyrrolidin-3-yl)-4-(trifluoromethoxy)butan-2-yl)amino)propan-2-yl)oxalamide], the EC50 is less than 0.05 µM.

The experiment is the same for the next values; noted with them: Severe acute respiratory syndrome coronavirus 2, HeLa-ACE2, 24 h, HeLa-ACE2 cells, SARS-CoV-2 infection, 24 h; read-out: EC50, uM (Hela).
On to `Cn1ccc(NC(=O)C(=O)N2C[C@@H]3CCC[C@@H]3[C@H]2C(=O)N[C@@H](C[C@@H]2CCNC2=O)C(=O)COC(F)(F)F)n1` [Compound 534, (1S,3aR,6aS)-2-(2-((l-methyl-1H-pyrazol-3-yl)amino)-2-oxoacetyl)-N-((S)-3-oxo-1-((S)-2-oxopyrrolidin-3-yl)-4-(trifluoromethoxy)butan-2-yl)octahydrocyclo-penta[c]pyrrole-1-carboxamide], for which the 50% effective concentration (EC50) fell in the range of 0.05 to 0.2 µM. Turning to `CC(C)(C)CCC(=O)N1CC2(CC2)C[C@H]1C(=O)N[C@@H](C[C@@H]1CCNC1=O)C(=O)COC(F)(F)F` [Compound 459, (S)-5-(4,4-dimethylpentanoyl)-N-((S)-3-oxo-1-((S)-2-oxopyrrolidin-3-yl)-4-(trifluoromethoxy)butan-2-yl)-5-azaspiro[2.4]heptane-6-carboxamide], the concentration for a half-maximal effect (EC50) was less than 0.05 µM. Still for that read-out and setting: with `O=C1NCC[C@H]1C[C@H](NC(=O)[C@@H]1CC2(CC2)CN1C(=O)c1cccc(C(F)(F)F)c1)C(=O)COC(F)(F)F` [Compound 457, (S)-N-((S)-3-oxo-1-((S)-2-oxopyrrolidin-3-yl)-4-(trifluoromethoxy)butan-2-yl)-5-(3-(trifluoromethyl)-benzoyl)-5-azaspiro[2.4]heptane-6-carboxamide] the figure was less than 0.05 µM; with `O=C1NCC[C@H]1C[C@H](NC(=O)[C@@H]1CC2(CC2)CN1C(=O)C(F)(F)c1ccccc1)C(=O)COC(F)(F)F` [Compound 616, (S)-5-(2,2-difluoro-2-phenylacetyl)-N-((S)-3-oxo-1-((S)-2-oxopyrrolidin-3-yl)-4-(trifluoromethoxy)butan-2-yl)-5-azaspiro[2.4]heptane-6-carboxamide], less than 0.05 µM. Turning to `CC(C)(C)NC(=O)C(=O)N[C@@H](CC1CC1)C(=O)N[C@@H](C[C@@H]1CCNC1=O)C(=O)COC(F)(F)F` [Compound 503, N1-(tert-butyl)-N2-((S)-3-cyclopropyl-1-oxo-1-(((S)-3-oxo-1-((S)-2-oxopyrrolidin-3-yl)-4-(trifluoromethoxy)butan-2-yl)amino)propan-2-yl)oxalamide], the 50% effective concentration (EC50) is less than 0.05 µM. For `O=C1NCC[C@H]1C[C@H](NC(=O)[C@@H]1CC2(CC2)CN1C(=O)CNCC(F)(F)F)C(=O)COC(F)(F)F` [Compound 672, (S)-N-((S)-3-oxo-1-((S)-2-oxopyrrolidin-3-yl)-4-(trifluoromethoxy)butan-2-yl)-5-((2,2,2-trifluoroethyl)glycyl)-5-azaspiro[2.4]heptane-6-carboxamide], the concentration for a half-maximal effect (EC50) lay in the range of 0.05 to 0.2 µM.

As to `CC(C)C[C@@H](O)C(=O)N1CCC2(CC2)C[C@H]1C(=O)N[C@@H](C[C@@H]1CCNC1=O)C(=O)COC(F)(F)F` [Compound 640, (S)-6-((R)-2-hydroxy-4-methylpentanoyl)-N-((S)-3-oxo-1-((S)-2-oxopyrrolidin-3-yl)-4-(trifluoromethoxy)butan-2-yl)-6-azaspiro[2.5]octane-5-carboxamide], the half-maximal effective concentration (EC50) is 0.05 to 0.2 µM.

The values are drawn from US11708348B2, “Protease inhibitors for treatment of coronavirus infections” (The Scripps Research Institute, priority 2021, dated 2023).
